Format in all cases: biochemical
The target of experiment [1] is T1, MMP1 (Homo sapiens, UniProt P03956).
T1 construct: in the form of the catalytic domains alone for the other MMPs
T1 sequence (P03956 98-276 limits assumed): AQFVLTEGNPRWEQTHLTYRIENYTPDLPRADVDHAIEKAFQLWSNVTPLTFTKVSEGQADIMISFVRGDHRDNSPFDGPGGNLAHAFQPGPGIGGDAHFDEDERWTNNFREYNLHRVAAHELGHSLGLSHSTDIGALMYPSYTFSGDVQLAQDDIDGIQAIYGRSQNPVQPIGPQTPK
As to the kind of experiment: Fluorimetric enzymatic test, MMP1. The conditions noted are these: for IC50: catalytic domain, fluorimetric test. Here is the method: (§1) Determination of the modulatory activity on the proteolytic action of the various MMPs tested (MMP1, 2, 3, 8, 9, 12, 13 and 14) using the compounds of formula (I) according to the present invention was performed via fluorometry on a 96-well plate.
(§2) The test compounds were dissolved in DMSO to a concentration of 5 mM or 50 mM. 5-fold or 10-fold (D5 or D10) serial dilutions of each compound were prepared so as to reach the nominal range of 5 assays on which the test was performed. Each of the dilutions was added to a well containing 150 µl of activated buffer (50 mM Tris/HCl; 0.1 M NaCl; 10 mM CaCl2; 0.05% Brij 35) together with the enzyme on which the test was performed.
(§3) After incubation for one hour at 37°C of the compound with the enzyme, 50 µl of a solution of fluorogenic substrate were added to a final concentration of between 2 and 7 µM.
(§4) The fluorometric readings were then taken using a Varian Cary Eclipse spectrofluorometer regulated on the specific wavelength for the substrate used, at time T0 and after 3 hours of incubation at 37° (T3h).

In experiment [2] the target is T2, MMP3 (Homo sapiens, UniProt P08254).
T2 construct: in the form of the catalytic domains alone for the other MMPs
T2 sequence (P08254 100-272 limits assumed, species assumed): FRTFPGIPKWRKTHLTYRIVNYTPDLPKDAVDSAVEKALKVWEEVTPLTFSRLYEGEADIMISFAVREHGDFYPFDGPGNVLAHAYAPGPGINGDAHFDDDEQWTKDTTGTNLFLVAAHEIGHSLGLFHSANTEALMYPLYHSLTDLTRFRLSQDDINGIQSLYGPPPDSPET
Kind of experiment: Fluorimetric enzymatic test, MMP3. The note with it: for IC50: catalytic domain, fluorimetric test. The procedure: as §1, §2, §3, §4

The target of experiment [3] is T3, MMP14 (Homo sapiens, UniProt P50281).
T3 construct: in the form of the catalytic domains alone for the other MMPs
As to the kind of experiment: Fluorimetric enzymatic test, MMP14. The conditions noted are these: for IC50: catalytic domain, fluorimetric test. Here is the method:
as §1, §2
(§5) The concentration of the enzyme [in full-length form in the case of MMP2; in the form of the catalytic domains alone for the other MMPs] ranged between 0.5 nM and 3 nM based on the activity of the enzyme on the fluorogenic substrate used (7-methoxycoumarin-4-yl)-Pro-Leu-Gly-Leu-DPA-Ala-Arg-NH2 (MCA-1) for MMP 1, 2, 3, 8, 9, 12 and 14) and MCA-Pro-(L-cyclohexylalanine)-Gly-(L-norvaline)-His-Ala-3-(2,4-dinitrophenyl)-L-2,3-diaminopropionyl)-NH2 for MMP13) (Knight et al. 1992. FEBS Lett. 296, 263; Knauper et al. 1996, J. Biol. Chem. 271, 1544).
as §3, §4

Experiment [4] deals with T4, MMP9 (Homo sapiens, UniProt P14780).
T4 construct: in the form of the catalytic domains alone for the other MMPs
T4 sequence (P14780 107-444 limits assumed, species assumed): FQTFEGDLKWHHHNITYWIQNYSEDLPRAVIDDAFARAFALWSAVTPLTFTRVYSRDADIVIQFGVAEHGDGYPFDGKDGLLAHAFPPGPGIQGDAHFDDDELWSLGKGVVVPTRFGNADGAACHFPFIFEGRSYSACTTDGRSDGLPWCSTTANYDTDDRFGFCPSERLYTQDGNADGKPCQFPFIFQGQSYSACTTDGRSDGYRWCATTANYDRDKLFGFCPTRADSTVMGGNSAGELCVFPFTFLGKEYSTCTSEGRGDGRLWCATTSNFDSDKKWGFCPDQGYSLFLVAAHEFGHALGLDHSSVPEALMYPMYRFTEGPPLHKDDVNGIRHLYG
As to the kind of experiment: Fluorimetric enzymatic test, MMP9. The conditions noted are these: catalytic domain. The procedure:
as §1, §2, §5, §3, §4

The target in experiment [5] is T5, MMP2 (Homo sapiens, UniProt P08253).
T5 construct: in full-length form in the case of MMP2
T5 sequence (P08253 110-660): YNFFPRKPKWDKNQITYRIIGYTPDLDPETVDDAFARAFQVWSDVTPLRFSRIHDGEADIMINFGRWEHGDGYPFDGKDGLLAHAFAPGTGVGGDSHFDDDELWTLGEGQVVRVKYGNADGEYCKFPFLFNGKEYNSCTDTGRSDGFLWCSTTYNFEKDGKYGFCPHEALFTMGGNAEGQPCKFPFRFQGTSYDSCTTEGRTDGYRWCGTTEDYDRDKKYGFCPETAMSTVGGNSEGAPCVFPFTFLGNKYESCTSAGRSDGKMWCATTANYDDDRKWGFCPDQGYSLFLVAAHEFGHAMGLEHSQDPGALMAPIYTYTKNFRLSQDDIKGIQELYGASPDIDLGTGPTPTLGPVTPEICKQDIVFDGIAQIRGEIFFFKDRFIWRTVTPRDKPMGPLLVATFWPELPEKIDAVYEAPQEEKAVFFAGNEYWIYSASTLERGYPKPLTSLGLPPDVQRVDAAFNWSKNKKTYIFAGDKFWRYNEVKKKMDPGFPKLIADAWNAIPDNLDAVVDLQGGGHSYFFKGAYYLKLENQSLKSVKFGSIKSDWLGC
Kind of experiment: Fluorimetric enzymatic test, MMP2. The conditions noted are these: full enzyme, read-out: IC50MMP2 (full enzyme). Here is the method: as §1, §2, §3, §4

Experiment [6] concerns the target T6, MMP12 (Homo sapiens, UniProt P39900).
T6 construct: in the form of the catalytic domains alone for the other MMPs
Kind of experiment: Fluorimetric enzymatic test, MMP12. The conditions noted are these: catalytic domain. Here is the method:
as §1, §2, §5, §3, §4

The target of experiment [7] is T7, MMP13 (Homo sapiens, UniProt P45452).
T7 construct: in the form of the catalytic domains alone for the other MMPs
Kind of experiment: Fluorimetric enzymatic test, MMP13. The conditions noted are these: catalytic domain. The procedure:
as §1, §2, §3, §4

Experiment [8] has as its target T8, MMP8 (Homo sapiens, UniProt P22894).
T8 construct: in the form of the catalytic domains alone for the other MMPs
Kind of experiment: Fluorimetric enzymatic test, MMP8. The note with it: catalytic domain. The procedure: as §1, §2, §5, §3, §4

The mark [9] stands for this setting: relative to the limit value of 0.3 nM for MMP2.

T8 sequence (P22894 100-262 limits assumed, species assumed): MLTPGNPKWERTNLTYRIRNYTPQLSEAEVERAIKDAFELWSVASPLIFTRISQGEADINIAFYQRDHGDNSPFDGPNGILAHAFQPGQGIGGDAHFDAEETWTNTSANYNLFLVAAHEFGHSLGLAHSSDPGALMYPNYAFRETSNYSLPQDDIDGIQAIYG
T6 sequence (P39900 106-263 limits assumed, species assumed): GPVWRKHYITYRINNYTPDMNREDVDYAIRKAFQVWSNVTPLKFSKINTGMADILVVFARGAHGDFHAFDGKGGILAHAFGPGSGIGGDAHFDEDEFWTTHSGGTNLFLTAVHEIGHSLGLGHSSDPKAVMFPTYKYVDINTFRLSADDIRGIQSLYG

Regarding `CCCCOc1ccc(S(=O)(=O)N2CCc3c([nH]c4ccccc34)C2C(=O)NO)cc1` (racemic) [Compound 10, (1R,S)-2-(4'-butoxybenzenesulfonyl)-1,2,3,4-tetrahydro-norarmano-N-hydroxy-1-carboxamide], the IC50 was 20000 ± 2000 nM in experiment [1]; 4000 ± 1500 nM in experiment [2]; 50 ± 11 nM in experiment [3]; 6 ± 2 nM in experiment [4]; 7 ± 2.5 nM in experiment [5]; < 0.5 nM in experiment [6]. Besides, the figures for the IC50 in experiment [7] and in experiment [8] were 2000 ± 500 nM and < 0.5 nM, respectively.

Regarding `O=C(NO)C1c2[nH]c3ccccc3c2CCN1S(=O)(=O)c1ccc(-c2ccccc2)cc1` (racemic) [Compound 11, (1R,S)-2-(4'biphenylsulfonyl)-1,2,3,4-tetrahydro-norarmano-N-hydroxy-1-carboxamide], the IC50 came out at 3000 ± 1000 nM in experiment [1]; 600 nM in experiment [2]; 15 ± 2 nM in experiment [4]; 14 ± 3 nM in experiment [5]; 4 ± 1.6 nM in experiment [6]; 3 nM in experiment [7]. Moreover, the IC50 in experiment [8] is 4.7 ± 0.5 nM.

Regarding `COc1ccc(Oc2ccc(S(=O)(=O)N3CCc4c([nH]c5ccccc45)C3C(=O)NO)cc2)cc1` (racemic) [Compound 12, (1 RS)-2-(4"-methoxy-4'-phenoxybenzenesulfonyl)-1,2,3,4-tetrahydronorarmano-N-hydroxy-1-carboxamide], the IC50 was 350 ± 100 nM in experiment [1]; 30000 ± 10000 nM in experiment [2]; 5 ± 1 nM in experiment [3]; < 0.5 nM in experiment [4]; < 0.3 nM in experiment [5]; < 0.5 nM in experiment [6]. Further, the IC50 in experiment [7] and in experiment [8] was < 0.5 nM in each case.

For the molecule `CC(C)(C)c1ccc(S(=O)(=O)N2CCc3c([nH]c4ccccc34)C2C(=O)O)cc1` (racemic) [Compound 7, (1 RS)-2-(4'-t-butylbenzenesulfonyl)-1,2,3,4-tetrahydro-norarmano-1-carboxylic acid], the IC50 in experiment [5] is > 125000 nM.

For `Cc1ccc(S(=O)(=O)N2CCc3c([nH]c4ccccc34)C2C(=O)O)cc1` (racemic) [Compound 5, (1RS)-2-(4-methylbenzenesulfonyl)-1,2,3,4-tetrahydro-norarmano-1-carboxylic acid], the IC50 in experiment [4] turned out to be 141000 nM; in experiment [5], 15000 nM.

In the case of `O=C(NO)C1c2[nH]c3ccccc3c2CCN1S(=O)(=O)c1ccc(Oc2ccc(F)cc2)cc1` (racemic) [Compound 14, (1RS)-2-(4"-fluoro-4'-phenoxybenzenesulfonyl)-1,2,3,4-tetrahydronorarmano-N-hydroxy-1-carboxamide], the IC50 in experiment [1] is 340 ± 100 nM; in experiment [2] it was 600 ± 200 nM; in experiment [3] it was 3.2 ± 0.1 nM; in experiment [4] it was < 0.5 nM; in experiment [5] it was < 0.3 nM; in experiment [7], < 0.5 nM. For the same molecule, the IC50 in experiment [8] is < 0.5 nM.

`COc1ccc2[nH]c3c(c2c1)CCNC3C(=O)O` (stereo not shown) [6-methoxy-1,2,3,4-tetrahydronorarmano-1-carboxylic acid, reference compound] gave an IC50 in experiment [8] of 200 nM.

Consider `O=C(O)C1c2[nH]c3ccccc3c2CCN1S(=O)(=O)c1ccc(-c2ccccc2)cc1` (racemic) [Compound 3, (1RS)-2-(4'-phenylbenzenesulfonyl)-1,2,3,4-tetrahydro-norarmano-1-carboxylic acid], for which the IC50 is > 50000 nM in experiment [1]; 11000 ± 1000 nM in experiment [2]; 30000 ± 2000 nM in experiment [3]; 7500 ± 5000 nM in experiment [4]; 600 ± 800 nM in experiment [5]; 300 ± 50 nM in experiment [6]. In addition, the values for the IC50 in experiment [7] and in experiment [8] were 160 ± 50 nM and 3000 ± 700 nM, respectively.

For `O=C(O)C1c2[nH]c3ccccc3c2CCN1S(=O)(=O)c1ccc(Oc2ccc(F)cc2)cc1` (racemic) [Compound 9, (1 RS)-2-(4"-fluoro-4'phenoxybenzenesulfonyl)-1,2,3,4-tetrahydronorarmano-1-carboxylic acid], the IC50 in experiment [1] was > 50000 nM; in experiment [2] it was > 50000 nM; in experiment [3], > 50000 nM; in experiment [4], 4000 ± 1000 nM; in experiment [5], 28000 ± 1000 nM; in experiment [6], 2000 ± 300 nM. For the same molecule, the IC50 in experiment [7] was > 50000 nM; in experiment [8], 21000 ± 2000 nM.

As to `CCCCOc1ccc(S(=O)(=O)N2CCc3c([nH]c4ccccc34)C2C(=O)O)cc1` (racemic) [Compound 4, (1 RS)-2-(4'-butoxybenzenesulfonyl)-1,2,3,4-tetrahydro-norarmano-1-carboxylic acid], the IC50 in experiment [1] was > 50000 nM; in experiment [4], 24000 ± 1000 nM; in experiment [5] it was 680 ± 200 nM; in experiment [6], 4500 ± 1000 nM; in experiment [7] it was 2000 ± 500 nM; in experiment [8] it was 30000 nM.

Take `O=C(O)C1c2[nH]c3ccccc3c2CCN1S(=O)(=O)c1ccc(Oc2ccc(Cl)cc2)cc1` (racemic) [Compound 8, (1 RS)-2-(4"-chloro-4'-phenoxybenzenesulfonyl)-1,2,3,4-tetrahydronorarmano-1-carboxylic acid]: the IC50 in experiment [1] was > 50000 nM; in experiment [2], > 50000 nM; in experiment [3], > 50000 nM; in experiment [4] it was 15000 ± 4000 nM; in experiment [5], 10000 ± 2000 nM; in experiment [6], 2000 ± 200 nM. Further, the IC50 came to 800 ± 200 nM in experiment [7] and 10000 ± 1000 nM in experiment [8].

In the case of `CC1(C)SCCN(S(=O)(=O)c2ccc(Oc3ccncc3)cc2)[C@H]1C(=O)NO` [prinomastat, (3S)-N-hydroxy-4-(4-(pyrid-4-yloxyl)benzenesulfonyl)-2,2-dimethyltetrahydro-2H-1,4-thiazine-3-carboxamide, reference compound], the IC50 in experiment [6] and in experiment [8] was < 0.5 nM each time.

As to `COc1ccc(Oc2ccc(S(=O)(=O)N3CCc4c([nH]c5ccccc45)C3C(=O)O)cc2)cc1` (racemic) [Compound 2, (1RS)-2-(4"-methoxy-4'-phenoxybenzenesulfonyl)-1,2,3,4-tetrahydronorarmano-1-carboxylic acid], the IC50 in experiment [1] was > 50000 nM; in experiment [2], > 50000 nM; in experiment [3] it was > 50000 nM; in experiment [4] it was 2200 ± 800 nM; in experiment [5], 600 ± 100 nM; in experiment [6], 500 ± 100 nM. In addition, the IC50 in experiment [7] is 15000 ± 5000 nM; in experiment [8], 1600 ± 200 nM.

`O=C(NO)C1c2[nH]c3ccccc3c2CCN1S(=O)(=O)c1ccc(Oc2ccc(Cl)cc2)cc1` (racemic) [Compound 13, (1 RS)-2-(4"-chloro-4'-phenoxybenzenesulfonyl)-1,2,3,4-tetrahydronorarmano-N-hydroxy-1-carboxamide]: the IC50 in experiment [1] was > 50000 nM; in experiment [3], 30 nM; in experiment [5] it was < 0.3 nM. Further, in experiment [1] (setting [9]), the “decrease in inhibitory power with respect to MMP1” value is “about 16 000 fold”. Moreover, in experiment [2] (setting [9]), the “decrease in inhibitory power with respect to MMP3” value is given as ~830 fold. The “decrease in inhibitory power with respect to MMP14” value in experiment [3] (setting [9]) was ~100 fold.

With `O=C(O)C1c2[nH]c3ccccc3c2CCN1S(=O)(=O)c1ccc2ccccc2c1` (racemic) [Compound 6, (1RS)-2-(2-naphthylsulfonyl)-1,2,3,4-tetrahydro-norarmano-1-carboxylic acid], the IC50 in experiment [4] was 62000 ± 5000 nM; in experiment [5], 2500 ± 100 nM.

Source of the values: patent publication EP2170885B1, “BETA-CARBOLINE ARYLSULFONAMIDES, METHOD FOR PREPARING THEM AND COMPOSITION COMPRISING THEM” (C4T S.C. a.r.l., priority 2007, dated 2008).
